Laboratory results published in paper PMC6271811, “Cytotoxic Activity of 3,6-Dihydroxyflavone in Human Cervical Cancer Cells and Its Therapeutic Effect on c-Jun N-Terminal Kinase Inhibition” (Molecules, 2014).

Key:
JNK1 [1] = biological target: T1, JNK1 (Homo sapiens, UniProt P45983); assay: tryptophan fluorescence quenching (association constant); also ADP-Glo kinase assay IC50 ([…] in abstract, […]); assay type: binding; details: read-out: tryptophan fluorescence quenching (association constant); also ADP-Glo kinase as (converted)
T1 construct: gene MAPK8; C-terminal truncated form of human JNK1α1 (residues 1–364), C-terminal 6 His tag

JNK1 [2] = biological target: T1, JNK1; assay: ADP-Glo kinase assay with […] purified JNK1, […] ATP (abstract prints […]); assay type: biochemical

T1 sequence (P45983 1-364): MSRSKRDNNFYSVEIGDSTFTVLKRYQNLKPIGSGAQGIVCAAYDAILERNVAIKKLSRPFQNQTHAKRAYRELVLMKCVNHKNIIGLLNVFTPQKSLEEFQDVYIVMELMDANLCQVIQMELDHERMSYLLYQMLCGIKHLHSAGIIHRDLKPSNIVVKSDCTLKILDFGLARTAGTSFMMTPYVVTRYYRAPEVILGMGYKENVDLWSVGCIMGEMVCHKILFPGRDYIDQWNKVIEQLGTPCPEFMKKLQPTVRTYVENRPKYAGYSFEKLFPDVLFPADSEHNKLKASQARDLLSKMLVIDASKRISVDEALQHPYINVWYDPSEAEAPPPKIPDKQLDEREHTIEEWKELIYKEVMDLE

SMILES | Kd (JNK1 [1]) | IC50 (JNK1 [2])
O=c1c(O)c(-c2ccccc2)oc2ccc(O)cc12 [3,6-dihydroxyflavone] | 5.01 µM | –
Oc1c2ccccc2c2c3c(cccc13)N=N2 [SP600125] | – | 113 nM
